Assay results taken from patent US20240254109A1, “SALT CONTAINING PIPERAZINE POLYCYCLIC DERIVATIVE, CRYSTAL FORM THEREOF, PREPARATION METHOD THEREFOR, AND USE THEREOF” (Shanghai Hansoh Biomedical Co., Ltd., priority 2021, published 2024).

Key:
[1] = Study on the crystal form of salt of compound (crystallization with counter ion acids); type: physicochemical; conditions: solvent Isopropyl ether, base: acid=1:1.2, 25° C.
Protocol: To identify which counter ion acids can form crystal form of salt of compound by selecting different counter ion acids according to suitable crystallization methods.
1 mL of the solution was taken into a glass bottle, and different counter ion acids (molar reaction ratio of base: acid=1:1.2) were added, and then the glass bottle was opened at room temperature to volatile solvent. The amorphous or oily was pulped with 200 μL of ethyl acetate.
1) 10 mg of crystal form B of free base was weighed, and 200 μL of methanol solvent was added, and counter ion acid (molar reaction ratio of base: acid=1:1.2) was added respectively at 25° C.
2) 85 mg of crystal form B of free base was weighed, and ethyl acetate was added to produce a clear solution. Different counter ion acids (molar reaction ratio of base: acid=1:1.2) were added respectively at 25° C.

[2] = Pharmacokinetic assay in Balb/c mice (plasma and brain tissue); type: in vivo; conditions: p.o. 5 mg/kg
Protocol: (III). Pharmacokinetic Assay in Balb/c Mice
Balb/c mice were used as test animals. The pharmacokinetic behavior in mouse body (plasma and brain tissue) of the compounds of Examples of the present invention was studied at an oral administration dose of 5 mg/kg.
Male Balb/c mice (12 mice per group), purchased from Shanghai Jiesijie Laboratory Animal Co., LTD, with Certificate No.: SCXK (Shanghai) 2013-0006 N0.311620400001794.
The test compound was dissolved in 0.5% CMC-Na (1% Tween80) by sonication to formulate a clear solution or homogeneous suspension.
After an overnight fast, male Balb/c mice (12 mice per group) were administered p.o. with the test compound at an administration dose of 5 mg/kg and an administration volume of 10 mL/kg.
0.2 mL of blood was taken from the heart of the mouse before administration and at 1, 2, 4, 8 and 24 hours after administration, and the mice were sacrificed with CO2. The samples were stored in EDTA-K2 tubes, and centrifuged for 6 minutes at 4° C., 6000 rpm to separate the plasma. The plasma samples were stored at −80° C. Whole brain tissue was taken out, weighed, placed in a 2 mL centrifuge tube, and stored at −80° C.
1) 160 μL of acetonitrile was added to 40 μL of the plasma sample for precipitation, and then the mixture was centrifuged for 5 to 20 minutes at 3500×g.
2) 90 μL of acetonitrile containing internal standard (100 ng/mL) was added to 30 μL of the plasma and brain homogenate sample for precipitation, and then the mixture was centrifuged for 8 minutes at 13000 rpm.
3) 70 μL of water was added to 70 μL of the treated supernatant and mixed by vortex for 10 minutes. 20 μL of the supernatant was taken to analyze the concentration of the test compound by LC/MS/MS. LC/MS/MS analytical instrument: AB Sciex API 4000 Qtrap.
• Liquid chromatography condition: Shimadzu LC-20AD pump • Chromatographic column: Agilent ZORBAX XDB-C18 (50×2.1 mm, […]); Mobile phase: Eluent A was 0.1% formic acid in water, and Eluent B was acetonitrile • Flow rate: 0.4 mL/min • Elution time: 0-4.0 minutes, the eluent is as follows:
The main parameters of pharmacokinetics were calculated by WinNonlin 6.1.

SMILES	Phenomenon [1]	Peak time tmax ([2]; Brain)	Peak time tmax ([2]; Plasma)
O=C(O)/C=C/C(=O)O [0.25M fumaric acid in ethanol]	Turbid	–	–
O=C(NC1CC(CCN2CCN(c3cccc(Cl)c3Cl)CC2)C1)C1(O)CC1 (stereo not shown) [Example 6, N-(3-(2-(4-(2,3-Dichlorophenyl)piperazin-1-yl)ethyl)cyclobutyl)-1-hydroxycyclopropane-1-carboxamide]	–	1 h	0.5 h
O=C(N[C@H]1C[C@H](CCN2CCN(c3cccc(Cl)c3Cl)CC2)C1)C1(O)CC1 [Example 6A, N-(Trans-3-(2-(4-(2,3-dichlorophenyl)piperazin-1-yl)ethyl)cyclobutyl)-1-hydroxycyclopropane-1-carboxamide]	–	1 h	0.5 h
O=C(N[C@H]1C[C@@H](CCN2CCN(c3cccc(Cl)c3Cl)CC2)C1)C1(O)CC1 [Example 6B, N-(Cis-3-(2-(4-(2,3-dichlorophenyl)piperazin-1-yl)ethyl)cyclobutyl)-1-hydroxycyclopropane-1-carboxamide]	–	1 h	0.5 h
O=C(NC1CC(CCN2CCN(c3cccc(Cl)c3Cl)CC2)C1)c1nccs1 (stereo not shown) [Example 7, N-(3-(2-(4-(2,3-Dichlorophenyl)piperazin-1-yl)ethyl)cyclobutyl)thiazole-2-carboxamide]	–	1 h	0.5 h
O=C(N[C@H]1C[C@H](CCN2CCN(c3cccc(Cl)c3Cl)CC2)C1)c1nccs1 [Example 7A, N-(Trans-3-(2-(4-(2,3-dichlorophenyl)piperazin-1-yl)ethyl)cyclobutyl)thiazole-2-carboxamide]	–	1 h	1 h
O=C(NC1CC(CCN2CCN(c3cccc(Cl)c3Cl)CC2)C1)c1ncco1 (stereo not shown) [Example 12, N-(3-(2-(4-(2,3-Dichlorophenyl)piperazin-1-yl)ethyl)cyclobutyl)oxazole-2-carboxamide]	–	1 h	0.5 h
